Measured values as given in the supplement of paper PMC11579375.

Legend:
Test in all cases: area under the viability dose-response curve (AUC) (AUC (arbitrary units, max 500 = no viability loss)); higher = less sensitive (higher viability)
Settings in all cases: exposure time: 120 h; concentration range: 0.1 nM - 10 µM, 6 doses
[1] = tested on: 10F2 (fetal-II hepatoblastoma organoid with high liver markers)
Protocol: (§1)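 Patient-derived hepatoblastoma tumor organoids (about 50 organoids per well, 384-well plates, medium with 5% BME) were treated with the PMC pediatric cancer drug library. Each drug was tested in duplicate at 6 concentrations (0.1 nM to 10 µM, 10-fold steps).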

[2] = tested on: 3E (embryonal-type hepatoblastoma organoid)
Protocol: as §1

[3] = tested on: 27F1 (fetal-I hepatoblastoma organoid with intermediate liver markers)
Protocol: as §1

[4] = tested on: 8F1 (fetal-I hepatoblastoma organoid with intermediate liver markers)
Protocol: as §1

[5] = tested on: 17E (embryonal-type hepatoblastoma organoid)
Protocol: as §1

[6] = tested on: 13F2 (fetal-II hepatoblastoma organoid with high liver markers)
Protocol: as §1

[7] = tested on: 135F2 (fetal-II hepatoblastoma organoid with high liver markers)
Protocol: as §1

[8] = tested on: 13E (embryonal-type hepatoblastoma organoid)
Protocol: as §1

[9] = tested on: 17F1 (fetal-I hepatoblastoma organoid with intermediate liver markers)
Protocol: as §1

[10] = tested on: 22E (embryonal-type hepatoblastoma organoid)
Protocol: as §1

[11] = tested on: 96F1 (fetal-I hepatoblastoma organoid with intermediate liver markers)
Protocol: as §1

Row | SMILES | area under the viability dose-response curve [1] | area under the viability dose-response curve [2] | area under the viability dose-response curve [3] | area under the viability dose-response curve [4] | area under the viability dose-response curve [5] | area under the viability dose-response curve [6] | area under the viability dose-response curve [7] | area under the viability dose-response curve [8] | area under the viability dose-response curve [9] | area under the viability dose-response curve [10] | area under the viability dose-response curve [11]
1 | CC1(COc2ccc3c(c2)ncn3-c2ccc3cccc(N4CCC(N)CC4)c3n2)COC1 [Crenolanib] | 480 | 466 | > 500 | > 500 | 487 | 446 | 448 | > 500 | 479 | > 500 | 467
2 | C[C@@H](Oc1cc(-c2cnn(C3CCNCC3)c2)cnc1N)c1c(Cl)ccc(F)c1Cl [Crizotinib] | 369 | 379 | 441 | 477 | 405 | 398 | 422 | 415 | 431 | 420 | 462
3 | Nc1ccn([C@@H]2O[C@H](CO)[C@@H](O)[C@@H]2O)c(=O)n1 [Cytarabine] | 481 | 370 | 427 | 479 | 425 | 377 | 403 | 425 | 393 | 433 | 378
4 | CC(C)(C)c1nc(-c2cccc(NS(=O)(=O)c3c(F)cccc3F)c2F)c(-c2ccnc(N)n2)s1 [Dabrafenib] | 422 | 491 | 497 | > 500 | 494 | 411 | 471 | 497 | > 500 | 486 | 456
5 | CN(C)/N=N/c1[nH]cnc1C(N)=O [Dacarbazine] | > 500 | > 500 | 494 | > 500 | > 500 | 487 | 496 | > 500 | 486 | > 500 | 491
6 | Cc1nc(Nc2ncc(C(=O)Nc3c(C)cccc3Cl)s2)cc(N2CCN(CCO)CC2)n1 [Dasatinib] | 473 | 315 | 488 | 473 | 463 | 379 | 458 | 397 | 488 | 461 | 479
7 | COc1cccc2c1C(=O)c1c(O)c3c(c(O)c1C2=O)C[C@@](O)(C(C)=O)C[C@@H]3O[C@H]1C[C@H](N)[C@H](O)[C@H](C)O1 [Daunorubicin] | 247 | 273 | 305 | 400 | 287 | 253 | 283 | 301 | 301 | 317 | 284
8 | Nc1ncn([C@H]2C[C@H](O)[C@@H](CO)O2)c(=O)n1 [Decitabine (Guadecitabine)] | 375 | 453 | 487 | 478 | 461 | 392 | 440 | 485 | 466 | 477 | 455
9 | CNC(=O)c1ccc(Nc2ncc(C(F)(F)F)c(NCc3nccnc3N(C)S(C)(=O)=O)n2)cc1 [Defactinib] | 465 | 454 | 455 | 466 | 449 | 442 | 454 | 443 | 466 | 469 | 443
10 | C[C@@H]1C[C@H]2[C@@H]3CCC4=CC(=O)C=C[C@]4(C)[C@@]3(F)[C@@H](O)C[C@]2(C)[C@@]1(O)C(=O)CO [Dexamethasone] | > 500 | > 500 | > 500 | 484 | > 500 | 494 | 472 | 473 | 477 | 497 | > 500
11 | CC(=O)O[C@@]12CO[C@@H]1C[C@H](O)[C@@]1(C)C(=O)[C@H](O)C3=C(C)[C@@H](OC(=O)[C@H](O)[C@@H](NC(=O)OC(C)(C)C)c4ccccc4)C[C@@](O)([C@@H](OC(=O)c4ccccc4)[C@H]21)C3(C)C [Docetaxel] | 134 | 101 | 267 | 401 | 175 | 171 | 195 | 179 | 255 | 248 | 203
12 | CN1CCN(c2ccc3nc(-c4c(N)c5c(F)cccc5[nH]c4=O)[nH]c3c2)CC1 [Dovitinib] | 418 | 396 | 477 | 499 | 390 | 400 | 455 | 417 | 468 | 412 | 433
13 | COc1cccc2c1C(=O)c1c(O)c3c(c(O)c1C2=O)C[C@@](O)(C(=O)CO)C[C@@H]3O[C@H]1C[C@H](N)[C@H](O)[C@H](C)O1 [Doxorubicin] | 281 | 263 | 333 | 384 | 278 | 258 | 308 | 305 | 311 | 336 | 311
14 | O=c1cc(CN2CCOCC2)occ1OCCCCCSc1ccnc2cc(C(F)(F)F)ccc12 [EHT 1864] | 375 | 371 | 490 | 468 | 454 | 456 | 475 | 481 | 477 | 490 | 488
15 | CC(C)(O)CNc1nc(Nc2ccnc(C(F)(F)F)c2)nc(-c2cccc(C(F)(F)F)n2)n1 [Enasidenib] | > 500 | > 500 | > 500 | > 500 | > 500 | > 500 | > 500 | > 500 | > 500 | > 500 | > 500
16 | C[C@@H]1CN(C(=O)c2ccc(NC(=O)c3cc(O[C@H](C)c4c(Cl)ccc(F)c4Cl)c(N)nn3)cc2)C[C@H](C)N1 [Ensartinib] | 449 | 403 | 468 | 444 | 411 | 410 | 449 | 422 | 483 | 393 | 456
17 | Nc1ccccc1NC(=O)c1ccc(CNC(=O)OCc2cccnc2)cc1 [Entinostat] | 358 | 386 | 462 | 426 | 428 | 429 | 455 | 425 | 434 | 439 | 483

Row | SMILES | area under the viability dose-response curve [1] | area under the viability dose-response curve [2] | area under the viability dose-response curve [3] | area under the viability dose-response curve [4] | area under the viability dose-response curve [5] | area under the viability dose-response curve [6] | area under the viability dose-response curve [7] | area under the viability dose-response curve [8] | area under the viability dose-response curve [9] | area under the viability dose-response curve [10] | area under the viability dose-response curve [11]
18 | c1cn2cc(-c3ccc4cn[nH]c4c3)nc(Nc3ccc(N4CCOCC4)cc3)c2n1 [Entospletinib] | 462 | 473 | 490 | 480 | > 500 | > 500 | 481 | 486 | 480 | 496 | 480
19 | CN1CCN(c2ccc(C(=O)Nc3n[nH]c4ccc(Cc5cc(F)cc(F)c5)cc34)c(NC3CCOCC3)c2)CC1 [Entrectinib] | 399 | 424 | 484 | 460 | 404 | 418 | 438 | 418 | 448 | 429 | 454
20 | Nc1cc(F)ccc1NC(=O)c1ccc(CNC(=O)/C=C/c2cccnc2)cc1 [Epidaza] | 395 | 466 | 482 | > 500 | 437 | 426 | 444 | 448 | 467 | 461 | 492
21 | COc1cc(OC)cc(N(CCNC(C)C)c2ccc3ncc(-c4cnn(C)c4)nc3c2)c1 [Erdafitinib] | 448 | 227 | 467 | 489 | 231 | 323 | 496 | 341 | 499 | 345 | 498
22 | C#Cc1cccc(Nc2ncnc3cc(OCCOC)c(OCCOC)cc23)c1 [Erlotinib] | 311 | 476 | 423 | 463 | 448 | 360 | 469 | 488 | 448 | 485 | 415
23 | COc1cc([C@@H]2c3cc4c(cc3[C@@H](O[C@@H]3O[C@@H]5CO[C@@H](C)O[C@H]5[C@H](O)[C@H]3O)[C@H]3COC(=O)[C@H]23)OCO4)cc(OC)c1O [Etoposide] | 388 | 378 | 446 | 477 | 349 | 359 | 389 | 380 | 438 | 446 | 383
24 | CO[C@H]1C[C@@H]2CC[C@@H](C)[C@@](O)(O2)C(=O)C(=O)N2CCCC[C@H]2C(=O)O[C@H]([C@H](C)C[C@@H]2CC[C@@H](OCCO)[C@H](OC)C2)CC(=O)[C@H](C)/C=C(\C)[C@@H](O)[C@@H](OC)C(=O)[C@H](C)C[C@H](C)/C=C/C=C/C=C/1C [Everolimus] | 373 | 303 | > 500 | 467 | 334 | 327 | 453 | 393 | 494 | 356 | 464
25 | CC1=C(/C=C/C(C)=C/C=C/C(C)=C/C(=O)Nc2ccc(O)cc2)C(C)(C)CCC1 [Fenretinide] | 418 | 386 | 484 | 470 | 426 | 469 | 430 | 446 | 443 | 418 | 430
26 | COc1ccc(-c2nc(N3CCOCC3)c3sc(CN(C)c4ncc(C(=O)NO)cn4)cc3n2)cn1 [Fimepinostat] | 169 | 161 | 255 | 296 | 158 | 167 | 166 | 236 | 255 | 237 | 235
27 | C=CC(=O)N1CC[C@H](n2nc(C#Cc3cc(OC)cc(OC)c3)c3c(N)ncnc32)C1 [Futibatinib] | 440 | 236 | > 500 | 482 | 323 | 370 | > 500 | 372 | > 500 | 425 | > 500
28 | CCOC(=O)CCNc1cc(N2CCc3ccccc3CC2)nc(-c2ccccn2)n1 [GSK J4] | 493 | 445 | > 500 | 494 | 452 | 438 | 468 | 449 | 483 | 476 | 492
29 | Cc1cccc(-c2nn3c(c2-c2ccnc4ccc(C(N)=O)cc24)CCC3)n1 [Galunisertib] | 465 | > 500 | > 500 | > 500 | > 500 | > 500 | 493 | 493 | > 500 | 482 | 481
30 | CC(C)c1cc(-c2n[nH]c(=O)n2-c2ccc3c(ccn3C)c2)c(O)cc1O [Ganetespib] | 236 | 265 | 278 | 265 | 232 | 243 | 340 | 269 | 343 | 345 | 358
31 | Nc1ccn([C@@H]2O[C@H](CO)[C@@H](O)C2(F)F)c(=O)n1 [Gemcitabine] | 212 | 241 | 310 | 433 | 257 | 209 | 237 | 339 | 273 | 331 | 273
32 | CN1CC[C@@H](NC(=O)Nc2ccc(C#N)cc2)C[C@@H]1c1nc2ccccc2[nH]1 [Glasdegib] | 448 | > 500 | > 500 | > 500 | > 500 | > 500 | > 500 | > 500 | 497 | > 500 | > 500
33 | CCn1cc(-c2cccc(C(F)(F)F)c2)c2sc(C(=N)NC3CCS(=O)(=O)CC3)cc2c1=O [I-BRD9] | > 500 | 376 | > 500 | 459 | 461 | 435 | 471 | 470 | 490 | 493 | 478
